Some test systems named below: 786-0 renal; ACHN renal; EKVX NSCLC; HCT-15 colon; HL-60(TB) leukemia; HOP-62 NSCLC; K-562 leukemia; NCI/ADR-RES ovarian; SF-268 CNS; SF-539 CNS; TK-10 renal; IGROV1 ovarian.
Holding throughout (assay): NCI anticancer screen, dose series, 48 h

Structures are written as SMILES.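 Where inhibition never reached the appropriate level, the endpoint shown equals the highest concentration tested. Otherwise, values were interpolated linearly from a five-concentration, 48-hour dose response in 96-well plates. TGI denotes the concentration required for complete inhibition of growth.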

Regarding `COc1c(C2(c3ccc(F)cc3)SCCCS2)c(=O)c1=O`, the TGI with 786-0 renal, with ACHN renal, with EKVX NSCLC, in the experiment on HCT-15 colon, in the experiment on HL-60(TB) leukemia and in the experiment with HOP-62 NSCLC was greater than 100 µM throughout. The TGI in the experiment with K-562 leukemia, with NCI/ADR-RES ovarian, with SF-268 CNS, in the experiment on SF-539 CNS and in the experiment with TK-10 renal was greater than 100 µM throughout.

Regarding `CC12CC3c4ccccc4CN1C3(c1ccccc1)OC2=O` (stereo unspecified), the TGI in the experiment on 786-0 renal, with ACHN renal, in the experiment with EKVX NSCLC, in the experiment with HCT-15 colon, in the experiment with HL-60(TB) leukemia and with HOP-62 NSCLC was greater than 100 µM throughout. Moreover, the TGI in the experiment with IGROV1 ovarian, with NCI/ADR-RES ovarian, in the experiment with SF-268 CNS, with SF-539 CNS and with TK-10 renal was greater than 100 µM each time.

In the case of `COC(=O)Cc1c([C@@H]2Nc3ccccc3[C@H]2CC(=O)OC)[nH]c2ccccc12`, the TGI with 786-0 renal, in the experiment on ACHN renal, with EKVX NSCLC, with HCT-15 colon, in the experiment with HOP-62 NSCLC and with IGROV1 ovarian was greater than 100 µM throughout. Also, the TGI is 77.7 µM in the experiment on K-562 leukemia; greater than 100 µM in the experiment with NCI/ADR-RES ovarian; greater than 100 µM in the experiment with SF-268 CNS; 67.5 µM in the experiment on SF-539 CNS; greater than 100 µM in the experiment on TK-10 renal.

Take `CC(C)CN1CN(c2ccccc2)C2(CCN(CC(C)(c3ccc(F)cc3)C3OCCO3)CC2)C1=O` (stereo unspecified): the TGI in the experiment with 786-0 renal came out at 12.1 µM; in the experiment on ACHN renal, 15 µM; in the experiment with EKVX NSCLC it was 19.8 µM; in the experiment with HCT-15 colon it was 16.6 µM; with HL-60(TB) leukemia, 12.8 µM; in the experiment on HOP-62 NSCLC, 13.8 µM. Moreover, the TGI with K-562 leukemia amounted to 18 µM; with NCI/ADR-RES ovarian it was 37.4 µM; with SF-268 CNS it was 30.1 µM; in the experiment with SF-539 CNS, 18.2 µM; in the experiment with TK-10 renal, 23.4 µM.

For `N#Cc1c(-c2ccco2)c2c(n(C3OC(CO)C(O)C(O)C3O)c1=S)CCCC2` (stereo unspecified), the TGI in the experiment on 786-0 renal, with ACHN renal, in the experiment with EKVX NSCLC, in the experiment on HCT-15 colon, in the experiment on HL-60(TB) leukemia and in the experiment with HOP-62 NSCLC was greater than 100 µM throughout. Moreover, the TGI in the experiment with IGROV1 ovarian, with NCI/ADR-RES ovarian, in the experiment with SF-268 CNS, in the experiment with SF-539 CNS and with TK-10 renal was greater than 100 µM in each case.

As to `O=c1cnn(C2OC(CO)C(O)C(F)C2O)c(=O)[nH]1` (stereo unspecified), the TGI in the experiment with 786-0 renal, with ACHN renal, in the experiment on EKVX NSCLC, in the experiment on HCT-15 colon, in the experiment on HL-60(TB) leukemia and with IGROV1 ovarian was greater than 100 µM in each case. Moreover, the TGI with K-562 leukemia, in the experiment on NCI/ADR-RES ovarian, with SF-268 CNS, with SF-539 CNS and with TK-10 renal was greater than 100 µM in each case.

On to `C/C(=N\Nc1nc2cc(C)ccc2s1)c1ccccn1`, for which the TGI is 9.59 µM in the experiment on 786-0 renal; 11 µM in the experiment with ACHN renal; greater than 21 µM in the experiment with EKVX NSCLC; 30.3 µM with HCT-15 colon; 0.699 µM in the experiment on HL-60(TB) leukemia; 3.62 µM in the experiment with HOP-62 NSCLC. For the same compound, the TGI was 0.844 µM with NCI/ADR-RES ovarian, 9.14 µM in the experiment with SF-268 CNS, 41.2 µM in the experiment with SF-539 CNS and greater than 64 µM in the experiment on TK-10 renal.

For the compound `Oc1c(OCc2nnc(CCCCCCCCc3nnc(COc4ccc5ccccc5c4O)n3Nc3ccccc3)n2Nc2ccccc2)ccc2ccccc12`, the TGI worked out at 27.4 µM in the experiment with 786-0 renal; 68.7 µM with ACHN renal; 31.6 µM in the experiment with EKVX NSCLC; 30 µM in the experiment on HCT-15 colon; 3.77 µM with HOP-62 NSCLC; 31.5 µM in the experiment with IGROV1 ovarian. The TGI is greater than 100 µM in the experiment on K-562 leukemia; 42.6 µM with NCI/ADR-RES ovarian; 27 µM in the experiment on SF-268 CNS; 20 µM with SF-539 CNS; greater than 64.7 µM in the experiment with TK-10 renal.

In the case of `Cc1cc(Br)c(N2C3=C(CC4=C2CCCC4=O)C(=O)CCC3)c(Br)c1`, the TGI with 786-0 renal, in the experiment on ACHN renal, in the experiment on EKVX NSCLC, with HCT-15 colon, in the experiment on HL-60(TB) leukemia and in the experiment with IGROV1 ovarian was greater than 100 µM throughout. The TGI in the experiment with K-562 leukemia, in the experiment on NCI/ADR-RES ovarian, in the experiment with SF-268 CNS, in the experiment with SF-539 CNS and in the experiment on TK-10 renal was greater than 100 µM in each case.

Regarding `O=C1CC(NC(=O)C(F)(F)F)c2c(Br)sc(N3CCC(c4ccccc4)CC3)c21` (stereo unspecified), the TGI in the experiment on 786-0 renal, in the experiment with ACHN renal, with EKVX NSCLC, in the experiment with HCT-15 colon, in the experiment with HL-60(TB) leukemia and in the experiment on IGROV1 ovarian was greater than 100 µM throughout. The TGI was greater than 100 µM with K-562 leukemia; greater than 100 µM with NCI/ADR-RES ovarian; greater than 100 µM in the experiment on SF-268 CNS; greater than 100 µM in the experiment with SF-539 CNS; 97.7 µM in the experiment on TK-10 renal.

Turning to `Nc1c(Br)cc(-c2cc(Br)c(N)c(Br)c2)cc1Br`, the TGI in the experiment on 786-0 renal, in the experiment on ACHN renal, with EKVX NSCLC, with HL-60(TB) leukemia, with HOP-62 NSCLC and with IGROV1 ovarian was greater than 100 µM each time. The TGI with K-562 leukemia, in the experiment on NCI/ADR-RES ovarian, in the experiment on SF-268 CNS, in the experiment with SF-539 CNS and with TK-10 renal was greater than 100 µM throughout.

For the compound `COC(=O)[C@]1(C)CCCn2c(=O)n(-c3ccccc3)c(=O)n21`, the TGI in the experiment on 786-0 renal, in the experiment with ACHN renal, with EKVX NSCLC, in the experiment with HCT-15 colon, with HOP-62 NSCLC and in the experiment on IGROV1 ovarian was greater than 100 µM in each case. Moreover, the TGI with K-562 leukemia, in the experiment on NCI/ADR-RES ovarian, in the experiment on SF-268 CNS, with SF-539 CNS and in the experiment on TK-10 renal was greater than 100 µM in each case.

The values are drawn from PubChem BioAssay (NCI).
